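At the GI50, growth is halved. TGI: total growth inhibition.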
Assays:
Experiment in all cases: DTP human tumour cell line panel, 384-well format
HCT-116 colon = system: HCT-116 colon
PC-3 prostate = system: PC-3 prostate
SNB-75 CNS = system: SNB-75 CNS
MOLT-4 leukemia = system: MOLT-4 leukemia
CAKI-1 renal = system: CAKI-1 renal
NCI-H460 NSCLC = system: NCI-H460 NSCLC
MCF7 breast = system: MCF7 breast
M14 melanoma = system: M14 melanoma
RPMI-8226 leukemia = system: RPMI-8226 leukemia
SW-620 colon = system: SW-620 colon
HCT-15 colon = system: HCT-15 colon
NCI-H522 lung = system: NCI-H522 lung
DU-145 prostate = system: DU-145 prostate
UO-31 renal = system: UO-31 renal
A498 renal = system: A498 renal
OVCAR-4 ovarian = system: OVCAR-4 ovarian
HCC-2998 colon = system: HCC-2998 colon
TK-10 renal = system: TK-10 renal
U251 glioblastoma = system: U251 glioblastoma
MDA-MB-468 breast = system: MDA-MB-468 breast
MDA-MB-231 breast = system: MDA-MB-231 breast
SF-268 CNS = system: SF-268 CNS
NCI-H322M lung = system: NCI-H322M lung
MALME-3M melanoma = system: MALME-3M melanoma
KM12 colon = system: KM12 colon
ACHN renal = system: ACHN renal
K-562 leukemia = system: K-562 leukemia
HS 578T breast = system: HS 578T breast
IGROV1 ovarian = system: IGROV1 ovarian
SK-MEL-5 melanoma = system: SK-MEL-5 melanoma
SF-295 CNS = system: SF-295 CNS
HT29 colon = system: HT29 colon
NCI-H23 lung = system: NCI-H23 lung
NCI-H226 lung = system: NCI-H226 lung
BT-549 breast = system: BT-549 breast
OVCAR-8 ovarian = system: OVCAR-8 ovarian
786-0 renal = system: 786-0 renal
SNB-19 CNS = system: SNB-19 CNS
RXF 393 renal = system: RXF 393 renal
HOP-92 NSCLC = system: HOP-92 NSCLC
HL-60(TB) leukemia = system: HL-60(TB) leukemia
A549 NSCLC = system: A549 NSCLC
SN12C renal = system: SN12C renal
UACC-62 melanoma = system: UACC-62 melanoma
T-47D breast = system: T-47D breast
HOP-62 NSCLC = system: HOP-62 NSCLC
UACC-257 melanoma = system: UACC-257 melanoma
SK-MEL-28 melanoma = system: SK-MEL-28 melanoma
SF-539 CNS = system: SF-539 CNS
LOX IMVI melanoma = system: LOX IMVI melanoma
CCRF-CEM leukemia = system: CCRF-CEM leukemia
OVCAR-5 ovarian = system: OVCAR-5 ovarian
NCI/ADR-RES ovarian = system: NCI/ADR-RES ovarian
EKVX NSCLC = system: EKVX NSCLC
COLO 205 colon = system: COLO 205 colon
SK-OV-3 ovarian = system: SK-OV-3 ovarian
MDA-MB-435 melanoma = system: MDA-MB-435 melanoma
OVCAR-3 ovarian = system: OVCAR-3 ovarian

Structure (SMILES): COc1cc2c(NC3CCN(C(C)C)CC3)nc(C3CCCCC3)nc2cc1OCCCN1CCCC1
- GI50 (HCT-116 colon): 550 nM
- TGI (HCT-116 colon): 1750 nM
- GI50 (PC-3 prostate): 1430 nM
- TGI (PC-3 prostate): 4160 nM
- GI50 (SNB-75 CNS): 1400 nM
- TGI (SNB-75 CNS): 2710 nM
- GI50 (MOLT-4 leukemia): 552 nM
- TGI (MOLT-4 leukemia): 1910 nM
- GI50 (CAKI-1 renal): 1390 nM
- TGI (CAKI-1 renal): 2720 nM
- GI50 (NCI-H460 NSCLC): 365 nM
- TGI (NCI-H460 NSCLC): 1040 nM
- GI50 (MCF7 breast): 1110 nM
- TGI (MCF7 breast): 2400 nM
- GI50 (M14 melanoma): 1740 nM
- TGI (M14 melanoma): 3140 nM
- GI50 (RPMI-8226 leukemia): 368 nM
- TGI (RPMI-8226 leukemia): 1130 nM
- GI50 (SW-620 colon): 1550 nM
- TGI (SW-620 colon): 2910 nM
- GI50 (HCT-15 colon): 1240 nM
- TGI (HCT-15 colon): 5200 nM
- GI50 (NCI-H522 lung): 634 nM
- TGI (NCI-H522 lung): 1830 nM
- GI50 (DU-145 prostate): 1230 nM
- TGI (DU-145 prostate): 4290 nM
- GI50 (UO-31 renal): 1320 nM
- TGI (UO-31 renal): 2720 nM
- GI50 (A498 renal): 683 nM
- TGI (A498 renal): 1960 nM
- GI50 (OVCAR-4 ovarian): 1120 nM
- TGI (OVCAR-4 ovarian): 2440 nM
- GI50 (HCC-2998 colon): 1560 nM
- TGI (HCC-2998 colon): 3010 nM
- GI50 (TK-10 renal): 1280 nM
- TGI (TK-10 renal): 2560 nM
- GI50 (U251 glioblastoma): 1030 nM
- TGI (U251 glioblastoma): 2200 nM
- GI50 (MDA-MB-468 breast): 262 nM
- TGI (MDA-MB-468 breast): 587 nM
- GI50 (MDA-MB-231 breast): 1610 nM
- TGI (MDA-MB-231 breast): 3340 nM
- GI50 (SF-268 CNS): 307 nM
- TGI (SF-268 CNS): 1520 nM
- GI50 (NCI-H322M lung): 1490 nM
- TGI (NCI-H322M lung): 3010 nM
- GI50 (MALME-3M melanoma): 1370 nM
- TGI (MALME-3M melanoma): 2680 nM
- GI50 (KM12 colon): 991 nM
- TGI (KM12 colon): 2520 nM
- GI50 (ACHN renal): 1790 nM
- TGI (ACHN renal): 3800 nM
- GI50 (K-562 leukemia): 484 nM
- TGI (K-562 leukemia): 1740 nM
- GI50 (HS 578T breast): 1750 nM
- TGI (HS 578T breast): 3140 nM
- GI50 (IGROV1 ovarian): 1530 nM
- TGI (IGROV1 ovarian): 11300 nM
- GI50 (SK-MEL-5 melanoma): 873 nM
- TGI (SK-MEL-5 melanoma): 2120 nM
- GI50 (SF-295 CNS): 1800 nM
- TGI (SF-295 CNS): 3210 nM
- GI50 (HT29 colon): 285 nM
- TGI (HT29 colon): 1110 nM
- GI50 (NCI-H23 lung): 1950 nM
- TGI (NCI-H23 lung): 4650 nM
- GI50 (NCI-H226 lung): 1790 nM
- TGI (NCI-H226 lung): 3940 nM
- GI50 (BT-549 breast): 378 nM
- TGI (BT-549 breast): 1340 nM
- GI50 (OVCAR-8 ovarian): 1540 nM
- TGI (OVCAR-8 ovarian): 2910 nM
- GI50 ([…]-0 renal): 1350 nM
- TGI (786-0 renal): 2650 nM
- GI50 (SNB-19 CNS): 1230 nM
- TGI (SNB-19 CNS): 3100 nM
- GI50 (RXF 393 renal): 347 nM
- TGI (RXF 393 renal): 1400 nM
- GI50 (HOP-92 NSCLC): 1200 nM
- TGI (HOP-92 NSCLC): 2460 nM
- GI50 (HL-60(TB) leukemia): 429 nM
- TGI (HL-60(TB) leukemia): 1070 nM
- GI50 (A549 NSCLC): 1560 nM
- TGI (A549 NSCLC): 3000 nM
- GI50 (SN12C renal): 1120 nM
- TGI (SN12C renal): 2950 nM
- GI50 (UACC-62 melanoma): 1750 nM
- TGI (UACC-62 melanoma): 3150 nM
- GI50 (T-47D breast): 573 nM
- TGI (T-47D breast): 1830 nM
- GI50 (HOP-62 NSCLC): 1710 nM
- TGI (HOP-62 NSCLC): 3140 nM
- GI50 (UACC-257 melanoma): 1250 nM
- TGI (UACC-257 melanoma): 2510 nM
- GI50 (SK-MEL-28 melanoma): 1260 nM
- TGI (SK-MEL-28 melanoma): 2530 nM
- GI50 (SF-539 CNS): 292 nM
- TGI (SF-539 CNS): 937 nM
- GI50 (LOX IMVI melanoma): 1450 nM
- TGI (LOX IMVI melanoma): 2790 nM
- GI50 (CCRF-CEM leukemia): 205 nM
- TGI (CCRF-CEM leukemia): 397 nM
- GI50 (OVCAR-5 ovarian): 1970 nM
- TGI (OVCAR-5 ovarian): 4260 nM
- GI50 (NCI/ADR-RES ovarian): 69000 nM
- TGI (NCI/ADR-RES ovarian): > 100000 nM
- GI50 (EKVX NSCLC): 807 nM
- TGI (EKVX NSCLC): 2860 nM
- GI50 (COLO 205 colon): 1330 nM
- TGI (COLO 205 colon): 2640 nM
- GI50 (SK-OV-3 ovarian): 1410 nM
- TGI (SK-OV-3 ovarian): 2970 nM
- GI50 (MDA-MB-435 melanoma): 1160 nM
- TGI (MDA-MB-435 melanoma): 2400 nM
- GI50 (OVCAR-3 ovarian): 835 nM
- TGI (OVCAR-3 ovarian): 2080 nM

Reference: PubChem BioAssay (NCI)
